Two compounds from article PMC12677699, “Utilizing Proteolytic‐Resistant Nano‐Short Peptide Based on Naphthyl Tail‐Anchored to Combat Bacterial Infections” (Advanced Science, 2025) can be followed below.

In brackets after ≈: the same amount, converted by molar mass. Non-standard residues stand in square brackets, D forms with d. Residues, ends and D or L forms follow the SMILES beside them. 2Nal = N[C@@H](Cc1ccc2ccccc2c1)C(=O)O

The subject of one data set is S. aureus ATCC 29213. In words: Drug resistance assay, 30 serial passages. Format: cell-based, Staphylococcus aureus. Conditions: S. aureus ATCC 29213, 30 successive passages at sub-MIC concentrations; gentamicin by day 17. As to the method: (§1) The potential resistance development of nano‐short peptides was evaluated through 30 serial passages of E. coli ATCC 25922 and S. aureus ATCC 29213 in sub‐MIC conditions,^[ [38] ^] using gentamicin as control.

In data set [1] the test system is E. coli ATCC 25922. Nature of the data set: Drug resistance assay, 30 serial passages. It counts as cell-based, Escherichia coli. Conditions: E. coli ATCC 25922, 30 successive passages at sub-MIC concentrations. The procedure:
as §1

Another data set deals with A. baumannii AB1901. In words: MIC against clinical strain. Format: cell-based. Conditions: Acinetobacter baumannii, AB1901, read-out: MIC, A. baumannii AB1901. As to the method:
(§2) The MIC values of the nano‐short peptides were determined according to standard protocols.^[ [63] ^] Bacterial strains were revived from cryopreservation and cultured in Mueller–Hinton broth (MHB) to logarithmic growth phase, then diluted to a final density of 0.5–1 × 10⁶ CFU mL^−1. Serial dilutions of the nano‐short peptides were prepared in 0.2% bovine serum albumin (BSA) using a 96‐well plate format. Equal volumes of peptide solutions and bacterial suspensions were combined and incubated at 37 °C for 20–22 h. Bacterial growth was assessed by measuring absorbance at 492 nm, with MHB alone (negative control) and untreated bacterial suspension (positive control) included for reference.

For the next data set, the system named is A. baumannii AB1902. In words: MIC against clinical strain. Conditions: Acinetobacter baumannii, AB1902, read-out: MIC, A. baumannii AB1902. It counts as cell-based. As to the method: as §2
The next data set relates to P. aeruginosa 25349. In words: MIC against clinical strain. As to conditions: Pseudomonas aeruginosa, 25349, read-out: MIC, P. aeruginosa 25349. Format: cell-based. As to the method: as §2
The test system of the next data set is S. aureus 11011. Nature of the data set: MIC against clinical strain. Format: cell-based. As to conditions: Staphylococcus aureus, 11011, read-out: MIC, S. aureus 11011. The procedure: as §2
The next data set concerns E. faecalis 29212. Format: cell-based, Enterococcus faecalis. The procedure:
as §2

Another data set concerns P. aeruginosa PAO1. It counts as cell-based, Pseudomonas aeruginosa. The procedure: as §2
In a further data set the test system is P. aeruginosa 27853. Format: cell-based, Pseudomonas aeruginosa. As to the method: as §2
A further data set deals with E. coli 078. Format: cell-based, Escherichia coli. As to the method: as §2
In a further data set the test system is E. coli UB1005. Format: cell-based, Escherichia coli. As to the method: as §2
A further data set deals with E. coli 25922. Format: cell-based, Escherichia coli. As to the method: as §2
Data set [2] concerns E. coli ATCC 25922. In words: Serum tolerance assay (MIC after incubation with serum). Format: cell-based, Escherichia coli. As to conditions: 4 h of incubation with various serum concentrations. As to the method:
The serum stability of nano‐short peptides was evaluated by incubating peptide solutions with fetal bovine serum (FBS), which was at concentrations of 25%, 50%, and 100% (diluted in 0.2% BSA solution). Following 4 h of incubation, the antimicrobial activity was determined by measuring the MIC against the test strains.

The test system of a further data set is S. typhimurium 14028. It counts as cell-based, Salmonella typhimurium. The procedure:
as §2

The test system of the next data set is S. typhimurium 7731. Format: cell-based, Salmonella typhimurium. As to the method:
as §2

A further data set relates to S. pullorum C7913. It counts as cell-based. As to the method:
as §2

A further data set concerns S. epidermidis 12228. Format: cell-based, Staphylococcus epidermidis. The procedure:
as §2

The nature of data set [3]: Critical aggregation concentration, 1,8-ANS fluorescence. Format: physicochemical. Conditions: 1,8-ANS 1 × 10^−6 M, peptide 2-256 × 10^−6 M in deionized water, 1 h, ex 360 nm, em 420–670 nm, linear fitting of fluorescence intensities. As to the method: The self‐assembly behavior of nano‐short peptides was characterized by determining the CAC using 1,8‐ANS as a hydrophobic fluorescent probe.^[ [32] ^] Serial peptide dilutions (2‐256 × 10^−6 M in 50 µL deionized water) were prepared in 96‐well plates. 1,8‐ANS powder was solubilized in dimethylformamide (DMF) and added to the 96‐well plates (final concentration of 1 × 10^−6 M), and deionized water solution containing 1,8‐ANS was used as a blank control. After incubation for 1 h, the fluorescence emission spectra were continuously monitored with a microplate reader (Tecan Infinite200 Pro, λ excitation = 360 nm, λ emission = 420–670 nm). CAC values were determined by linear fitting of representative fluorescence intensities.

A further data set relates to S. aureus 25923. It counts as cell-based, Staphylococcus aureus. As to the method: as §2
In the next data set the test system is S. aureus 29213. It counts as cell-based, Staphylococcus aureus. As to the method: as §2
The subject of a further data set is MRSA 43300. It counts as cell-based, Methicillin-Resistant Staphylococcus aureus. As to the method:
as §2

As to `CNC(C)C1CCC(N)C(OC2C(N)CC(N)C(OC3OCC(C)(O)C(NC)C3O)C2O)O1` (stereo not drawn) [Gentamicin], the “increase in MIC values after serial passage” value with S. aureus ATCC 29213 and with E. coli ATCC 25922 [1] was 128 fold in each case. Besides, the MIC with A. baumannii AB1901 stood at 2 µM (≈ 0.955 µg/mL); with A. baumannii AB1902, 128 µM (≈ 61.1 µg/mL); with P. aeruginosa 25349, 128 µM (≈ 61.1 µg/mL); in the data set with S. aureus 11011, 128 µM (≈ 61.1 µg/mL).
As to `N=C(N)NCCC[C@H](NC(=O)[C@H](Cc1ccc2ccccc2c1)NC(=O)[C@H](Cc1ccc2ccccc2c1)NC(=O)[C@@H](N)Cc1ccc2ccccc2c1)C(=O)N[C@H](CCCNC(=N)N)C(=O)N[C@@H](CCCNC(=N)N)C(=O)N1CCC[C@H]1C(=O)O` [Peptide N3] (H-[2Nal][2Nal][2Nal]R[dR]RP-OH), in the data set with E. faecalis 29212, the “MIC, E. faecalis 29212” value was determined as 16 µM (≈ 18.8 µg/mL). In addition, the “MIC, P. aeruginosa PAO1” value in the data set with P. aeruginosa PAO1 turned out to be 16 µM (≈ 18.8 µg/mL). The “MIC, P. aeruginosa 27853” value with P. aeruginosa 27853 worked out at 8 µM (≈ 9.4 µg/mL). Also, the “MIC, E. coli 078” value against E. coli 078 worked out at 8 µM (≈ 9.4 µg/mL). In addition, the “MIC, E. coli UB1005” value with E. coli UB1005 was found to be 8 µM (≈ 9.4 µg/mL). Further, the “MIC, E. coli 25922” value against E. coli 25922 came out at 16 µM (≈ 18.8 µg/mL). The “antimicrobial capacity after serum incubation” value with E. coli ATCC 25922 [2] was “retained their original antimicrobial capacity”. In the data set with S. typhimurium 14028, the “MIC, S. typhimurium 14028” value was determined as 32 µM (≈ 37.6 µg/mL). Moreover, the “MIC, S. typhimurium 7731” value in the data set with S. typhimurium 7731 is 32 µM (≈ 37.6 µg/mL). Also, in the data set with S. pullorum C7913, the “MIC, S. pullorum C7913” value was found to be 16 µM (≈ 18.8 µg/mL). The “MIC, S. epidermidis 12228” value against S. epidermidis 12228 was 16 µM (≈ 18.8 µg/mL). Besides, the “critical aggregation concentration (CAC)” value in [3] was determined as 62.79 µM. Moreover, in the data set with S. aureus 25923, the “MIC, S. aureus 25923” value worked out at 16 µM (≈ 18.8 µg/mL). The “MIC, S. aureus 29213” value with S. aureus 29213 was determined as 16 µM (≈ 18.8 µg/mL). In addition, the “MIC, MRSA 43300” value in the data set on MRSA 43300 was 16 µM (≈ 18.8 µg/mL).

One may read the MIC as the least concentration at which growth counts as inhibited.
